# Assay results reported in patent US4071411A, “Antitumor antibiotics aclacinomycins A and B [RD-9187A]” (priority 1974, dated 1978).
# Entries after “also recorded” stand apart in the source; their conditions may differ. Where two headings read alike, the source gives them in different places.
# Experiments:
# B. cereus ATCC 9634 = experiment: antimicrobial spectrum, broth dilution method; format: cell-based; conditions: Bacillus cereus
# Protocol: (§1) 1. The antimicrobial spectrum of aclacinomycins A and B was determined by the broth dilution method as follows: […]
# B. megaterium = experiment: antimicrobial spectrum, broth dilution method; format: cell-based; conditions: Priestia megaterium, read-out: Minimum Inhibitory Concentration
# Protocol: as §1
# [1] = system: Bacillus subtilis ATCC 6633; experiment: antimicrobial spectrum, broth dilution method; format: cell-based
# Protocol: as §1
# Can tropicalis IAM 4924 = experiment: antimicrobial spectrum, broth dilution method; format: cell-based; conditions: read-out: Minimum Inhibitory Concentration
# Protocol: as §1
# Can. albicans IAM 4905 = experiment: antimicrobial spectrum, broth dilution method; format: cell-based; conditions: Candida albicans
# Protocol: as §1
# Cory. bovis 1810 = experiment: antimicrobial spectrum, broth dilution method; format: cell-based
# Protocol: as §1
# Diplo. pneumoniae Type 1 = experiment: antimicrobial spectrum, broth dilution method; format: cell-based; conditions: Streptococcus pneumoniae
# Protocol: as §1
# Diplo. pneumoniae Type 3 = experiment: antimicrobial spectrum, broth dilution method; format: cell-based; conditions: Streptococcus pneumoniae
# Protocol: as §1
# E. coli K12 = experiment: antimicrobial spectrum, broth dilution method; format: cell-based; conditions: Escherichia coli
# Protocol: as §1
# [2] = system: Kl. pneumoniae ATCC 10031; experiment: antimicrobial spectrum, broth dilution method; format: cell-based; conditions: Klebsiella pneumoniae
# Protocol: as §1
# Mic. flavus = experiment: antimicrobial spectrum, broth dilution method; format: cell-based; conditions: Micrococcus flavus, read-out: Minimum Inhibitory Concentration
# Protocol: as §1
# [3] = system: Mycobact. smegmatis ATCC 607; experiment: antimicrobial spectrum, broth dilution method; format: cell-based; conditions: read-out: Minimum Inhibitory Concentration
# Protocol: as §1
# Ps. aeruginosa A20229 = experiment: antimicrobial spectrum, broth dilution method; format: cell-based; conditions: Pseudomonas aeruginosa
# Protocol: as §1
# Sar. lutea ATCC 9341 = experiment: antimicrobial spectrum, broth dilution method; format: cell-based; conditions: Micrococcus luteus
# Protocol: as §1
# St. pyogenes NY 5 = experiment: antimicrobial spectrum, broth dilution method; format: cell-based; conditions: Streptococcus pyogenes
# Protocol: as §1
# Staph. aureus FDA 209P = experiment: antimicrobial spectrum, broth dilution method; format: cell-based; conditions: Staphylococcus aureus, FDA209P, read-out: Minimum Inhibitory Concentration
# Protocol: as §1
# Staph. aureus Smith = experiment: antimicrobial spectrum, broth dilution method; format: cell-based; conditions: Staphylococcus aureus, read-out: Minimum Inhibitory Concentration
# Protocol: as §1
# Strept. faecalis = experiment: antimicrobial spectrum, broth dilution method; format: cell-based; conditions: Enterococcus faecalis, read-out: Minimum Inhibitory Concentration
# Protocol: as §1
# [4] = system: Gram-positive bacteria and yeasts; experiment: antimicrobial activity (summary in words); format: cell-based
# [5] = acute toxicity, single injection; format: in vivo, Mouse; conditions: mouse, in vivo, single injection
# Mouse = experiment: acute toxicity, single injection; format: in vivo; conditions: mice
# [6] = acute toxicity, single injection; format: in vivo, Rat; conditions: rat, in vivo, single injection
# Rat = experiment: acute toxicity, single injection; format: in vivo; conditions: rats
# rabbits = experiment: lethal dose (LD50) on rabbits; format: in vivo
# hamsters = experiment: acute cardiac alterations in the electrocardiograms of hamsters / cardiotoxicity; conditions: hamster, in vivo
# L1210 cells = experiment: cells; format: cell-based, mice; conditions: 3 days; for IC50: Mus musculus, L1210, 72 h, 37° C., read-out: ID50, growth; for inhibition of cell growth: below 1 mcg./ml. in the medium
# [7] = system: DNA synthesis (L1210 cells); experiment: cells; format: cell-based, mice; conditions: Mus musculus, L1210, 1 h; 14C-precursor incorporation, 37° C., 60 min.; read-out: ID50, DNA synthesis
# [8] = system: RNA synthesis (L1210 cells); experiment: cells; format: cell-based, mice; conditions: for IC50: Mus musculus, L1210, 1 h, 14C-precursor incorporation, 37° C., 60 min., read-out: ID50, RNA synthesis
# [9] = system: Protein synthesis (L1210 cells); experiment: cells; format: cell-based, mice; conditions: Mus musculus, L1210, 1 h; 14C-precursor incorporation, 37° C., 60 min.; read-out: ID50, Protein synthesis
# Vaccinia virus = experiment: microbe, parasite or virus in culture; format: cell-based
# [10] = system: nucleic acid biosynthesis (L1210 cells); format: cell-based, mice; conditions: below 1 mcg./ml. in the medium, 60 min.
# lymphoma 6C3HED = lymphoma 6C3HED in mice (summary in words); format: in vivo
# leukemia L1210 = leukemia L1210 in mice (summary in words); format: in vivo
# leukemia P388 = leukemia P388 in mice (summary in words); format: in vivo
# various animal tumors = experiment: antitumor activity in animal tumors (summary in words); format: in vivo; conditions: experimental animal tumors
# [11] = system: cultured mammalian tumor cells; experiment: growth of tumor cells in culture (summary in words); format: cell-based
# solubility = conditions: for solubility in low polar solvents: ether, hexane, cyclohexane, petroleum ether as listed; for solubility in organic solvents: methanol, ethanol, chloroform, ethyl acetate, acetone etc.
# [12] = basicity and lipophilicity
compound,measurement,setting,value
CCC1(O)CC(OC2CC(N(C)C)C(OC3CC(O)C(OC4CCC(=O)C(C)O4)C(C)O3)C(C)O2)c2c(cc3c(c2O)C(=O)c2c(O)cccc2C3=O)C1C(=O)OC (stereo not shown) [Aclacinomycin A],MIC,"B. cereus ATCC 9634; ATCC9634, broth dilution, read-out: Minimum Inhibitory Concentration",< 0.2 µg/mL
same,MIC,B. megaterium; broth dilution,< 0.63 µg/mL
same,MIC,"[1]; ATCC6633, broth dilution, read-out: Minimum Inhibitory Concentration",< 0.2 µg/mL
same,MIC,Can tropicalis IAM 4924; broth dilution,20 µg/mL
same,MIC,"Can. albicans IAM 4905; IAM4905, broth dilution, read-out: Minimum Inhibitory Concentration",10 µg/mL
same,MIC,"Cory. bovis 1810; Corynebacterium bovis, 1810, broth dilution, read-out: Minimum Inhibitory Concentration",< 0.2 µg/mL
same,MIC,"Diplo. pneumoniae Type 1; TYPE1, broth dilution, read-out: Minimum Inhibitory Concentration",0.63 µg/mL
same,MIC,"Diplo. pneumoniae Type 3; TYPE3, broth dilution, read-out: Minimum Inhibitory Concentration",0.63 µg/mL
same,MIC,"E. coli K12; K12, broth dilution, read-out: Minimum Inhibitory Concentration",> 100 µg/mL
same,MIC,"[2]; ATCC10031, broth dilution, read-out: Minimum Inhibitory Concentration",> 100 µg/mL
same,MIC,Mic. flavus; broth dilution,< 0.2 µg/mL
same,MIC,[3]; broth dilution,2.5 µg/mL
same,MIC,"Ps. aeruginosa A20229; A20229, broth dilution, read-out: Minimum Inhibitory Concentration",> 100 µg/mL
same,MIC,"Sar. lutea ATCC 9341; ATCC9341, broth dilution, read-out: Minimum Inhibitory Concentration",< 0.2 µg/mL
same,MIC,"St. pyogenes NY 5; NY5, broth dilution, read-out: Minimum Inhibitory Concentration",1.25 µg/mL
same,MIC,Staph. aureus FDA 209P; broth dilution,< 0.63 µg/mL
same,MIC,Staph. aureus Smith; broth dilution,< 0.2 µg/mL
same,MIC,Strept. faecalis; broth dilution,2.5 µg/mL
same,antimicrobial activity,[4],effective in preventing the growth; also recorded: strong antimicrobial activity
same,LD50,"[5]; ip, intraperitoneal",22.6 mg/kg
same,LD50,[5]; intravenous,33.7 mg/kg
same,"lethal dose (LD50), in words",Mouse,high lethal dose
same,LD50,"[6]; ip, intraperitoneal",25 to 50 mg/kg
same,LD50,[6]; intravenous,32.5 mg/kg
same,"lethal dose (LD50), in words",Rat,high lethal dose
same,"lethal dose (LD50), in words",rabbits,high lethal dose
same,cardiotoxicity on hamsters,hamsters,extremely low cardiotoxicity
same,IC50,L1210 cells,0.12 µg/mL
same,inhibition of cell growth,L1210 cells,over 50%
same,IC50,[7],1.1 µg/mL
same,inhibition of RNA synthesis (in words),[8],specific inhibition on RNA synthesis
same,IC50,[8],0.1 µg/mL
same,IC50,[9],6.3 µg/mL
same,inhibition of growth of vaccinia virus (in words),Vaccinia virus; HeLa cells,effective in inhibiting the growth
same,IC50,"Vaccinia virus; Orthopoxvirus vaccinia, HeLa, read-out: ID50, Vaccinia virus",< 10 µg/mL
same,inhibition of nucleic acid biosynthesis,[10],over 50%
same,inhibition of growth of lymphoma 6C3HED,lymphoma 6C3HED,effective in inhibiting the growth
same,"life prolongation, mice inoculated with lymphoma 6C3HED",lymphoma 6C3HED,markedly prolong the lives
same,inhibition of growth of leukemia L1210,leukemia L1210,effective in inhibiting the growth
same,"life prolongation, mice inoculated with leukemia L1210",leukemia L1210,markedly prolong the lives
same,inhibition of growth of leukemia P388,leukemia P388,effective in inhibiting the growth
same,"life prolongation, mice inoculated with leukemia P388",leukemia P388,markedly prolong the lives
same,antitumor activity (in words),various animal tumors,marked inhibitory effects; also recorded: potent antitumor activity
same,inhibition of growth of tumor cells in culture (in words),[11],remarkable inhibitory effect
same,solubility in low polar solvents,solubility,insoluble
same,solubility in organic solvents,solubility,soluble
same,solubility in water,solubility,slightly soluble
same,basicity,[12],weakly basic
CCC1(O)CC(OC2CC(N(C)C)C(OC3CC4OC5CC(=O)C(C)OC5OC4C(C)O3)C(C)O2)c2c(cc3c(c2O)C(=O)c2c(O)cccc2C3=O)C1C(=O)OC (stereo not shown) [Aclacinomycin B],MIC,"B. cereus ATCC 9634; ATCC9634, read-out: Minimum Inhibitory Concentration",< 0.2 µg/mL
same,MIC,B. megaterium,< 0.2 µg/mL
same,MIC,"[1]; ATCC6633, read-out: Minimum Inhibitory Concentration",< 0.2 µg/mL
same,MIC,Can tropicalis IAM 4924,20 µg/mL
same,MIC,"Can. albicans IAM 4905; IAM4905, read-out: Minimum Inhibitory Concentration",10 µg/mL
same,MIC,"Cory. bovis 1810; Corynebacterium bovis, 1810, read-out: Minimum Inhibitory Concentration",< 0.2 µg/mL
same,MIC,"Diplo. pneumoniae Type 1; TYPE1, read-out: Minimum Inhibitory Concentration",0.63 µg/mL
same,MIC,"Diplo. pneumoniae Type 3; TYPE3, read-out: Minimum Inhibitory Concentration",0.63 µg/mL
same,MIC,"E. coli K12; K12, read-out: Minimum Inhibitory Concentration",> 100 µg/mL
same,MIC,"[2]; ATCC10031, read-out: Minimum Inhibitory Concentration",> 100 µg/mL
same,MIC,Mic. flavus,< 0.2 µg/mL
same,MIC,[3],5 µg/mL
same,MIC,"Ps. aeruginosa A20229; A20229, read-out: Minimum Inhibitory Concentration",> 100 µg/mL
same,MIC,"Sar. lutea ATCC 9341; ATCC9341, read-out: Minimum Inhibitory Concentration",< 0.2 µg/mL
same,MIC,"St. pyogenes NY 5; NY5, read-out: Minimum Inhibitory Concentration",1.25 µg/mL
same,MIC,Staph. aureus FDA 209P,< 0.2 µg/mL
same,MIC,Staph. aureus Smith,< 0.2 µg/mL
same,MIC,Strept. faecalis,2.5 µg/mL
same,antimicrobial activity,[4],effective in inhibiting the growth; also recorded: strong antimicrobial activity
same,LD50,"[5]; ip, intraperitoneal",13.7 mg/kg
same,LD50,[5]; intravenous,16.4 mg/kg
same,"lethal dose (LD50), in words",Mouse,high lethal dose
same,LD50,"[6]; ip, intraperitoneal",10 to 15 mg/kg
same,LD50,[6]; intravenous,15 mg/kg
same,"lethal dose (LD50), in words",Rat,high lethal dose
same,"lethal dose (LD50), in words",rabbits,high lethal dose
same,cardiotoxicity on hamsters,hamsters,extremely low cardiotoxicity
same,IC50,L1210 cells,0.24 µg/mL
same,inhibition of cell growth,L1210 cells,over 50%
same,IC50,[7],4 µg/mL
same,inhibition of RNA synthesis (in words),[8],specific inhibition on RNA synthesis
same,IC50,[8],0.2 µg/mL
same,IC50,[9],12 µg/mL
same,inhibition of growth of vaccinia virus (in words),Vaccinia virus,effective in inhibiting the growth
same,IC50,"Vaccinia virus; Orthopoxvirus vaccinia, HeLa; read-out: ID50, Vaccinia virus",< 10 µg/mL
same,inhibition of nucleic acid biosynthesis,[10],over 50%
same,"life prolongation, mice inoculated with lymphoma 6C3HED",lymphoma 6C3HED,markedly prolong the lives
same,inhibition of growth of leukemia L1210,leukemia L1210,effective in inhibiting the growth
same,"life prolongation, mice inoculated with leukemia L1210",leukemia L1210,markedly prolong the lives
same,inhibition of growth of leukemia P388,leukemia P388,effective in inhibiting the growth
same,"life prolongation, mice inoculated with leukemia P388",leukemia P388,markedly prolong the lives
same,antitumor activity (in words),various animal tumors,marked inhibitory effects; also recorded: potent antitumor activity
same,inhibition of growth of tumor cells in culture (in words),[11],remarkable inhibitory effect
same,solubility in acidic water,solubility; acidic water,soluble
same,solubility in low polar solvents,solubility,insoluble
same,solubility in organic solvents,solubility,soluble
same,solubility in water,solubility,slightly soluble
same,basicity,[12],weakly basic
same,lipophilicity,[12],lipophilic
